Test results published in patent US7485651B2, “Compounds with activity on muscarinic receptors” (Acadia Pharmaceuticals, Inc., priority 1998, dated 2009).

Legend:
[1] = biological target: T1, α-adrenergic receptor subtype 1A (Homo sapiens, UniProt P35348); test: Test against other receptors: α-adrenergic 1A; format: cell-based
T1 sequence (P35348 1-466): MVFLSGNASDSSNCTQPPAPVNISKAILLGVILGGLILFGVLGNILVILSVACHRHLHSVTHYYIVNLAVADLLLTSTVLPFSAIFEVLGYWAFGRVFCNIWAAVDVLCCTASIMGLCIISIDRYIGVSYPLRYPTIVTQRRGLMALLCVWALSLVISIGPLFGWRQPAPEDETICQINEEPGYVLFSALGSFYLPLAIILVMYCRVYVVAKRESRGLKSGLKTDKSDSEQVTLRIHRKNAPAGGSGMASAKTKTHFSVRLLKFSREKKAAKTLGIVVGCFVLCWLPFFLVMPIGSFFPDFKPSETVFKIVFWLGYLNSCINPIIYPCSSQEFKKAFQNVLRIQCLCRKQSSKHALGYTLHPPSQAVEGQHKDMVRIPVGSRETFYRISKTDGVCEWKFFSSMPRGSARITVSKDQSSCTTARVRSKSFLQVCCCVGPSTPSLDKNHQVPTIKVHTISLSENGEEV

[2] = biological target: T2, α-adrenergic receptor subtype 2C (Homo sapiens, UniProt P18825); test: Test against other receptors: α-adrenergic 2C; format: cell-based
T2 sequence (P18825 1-462): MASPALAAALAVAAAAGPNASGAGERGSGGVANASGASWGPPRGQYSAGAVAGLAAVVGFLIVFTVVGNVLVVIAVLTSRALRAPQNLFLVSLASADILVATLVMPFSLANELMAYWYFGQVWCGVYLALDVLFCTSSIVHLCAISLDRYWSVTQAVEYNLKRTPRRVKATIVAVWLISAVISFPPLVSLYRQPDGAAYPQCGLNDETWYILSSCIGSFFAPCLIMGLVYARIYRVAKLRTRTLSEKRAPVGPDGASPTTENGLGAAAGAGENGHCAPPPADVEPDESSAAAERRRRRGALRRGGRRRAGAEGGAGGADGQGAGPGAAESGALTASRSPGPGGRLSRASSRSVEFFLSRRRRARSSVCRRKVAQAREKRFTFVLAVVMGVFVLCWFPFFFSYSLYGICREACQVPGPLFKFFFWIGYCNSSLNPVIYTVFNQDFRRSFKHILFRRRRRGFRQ

serotonin 5-HT2A = serotonin 5-HT2A (Homo sapiens, UniProt P28223); test: Test against other receptors: serotonin 5-HT2A
m3 receptor = biological target: T3, m3 receptor (Homo sapiens, UniProt P20309); test: R-SAT / NIH 3T3 cells transfected with m3 muscarinic receptor; format: cell-based
T3 construct: expressed in transfected cells; host or cells: NIH 3T3 (ATCC CRL 1658)
Description: A particularly convenient functional assay system is the receptor selection and amplification assay disclosed in U.S. Pat. No. 5,707,798 describing a method of screening for bioactive compounds by utilizing the ability of cells transfected with receptor DNA, e.g. coding for the different muscarinic subtypes, to amplify in the presence of a ligand of the receptor. Cell amplification is detected as increased levels of a marker also expressed by the cells.
Transfection of cells with muscarinic receptor DNAs (general procedure) NIH 3T3 cells (available from the American Type Culture Collection as ATCC CRL 1658) were grown at 37° C. in a humidified atmosphere (5% CO2) incubator in Dulbecco's modified Eagle's medium (DMEM) supplemented with 4.5 g/l glucose, 4 mM glutamine, 50 units/m1 penicillin, 50 units/m1 streptomycin (available from Advanced Biotechnologies, Inc., Gaithersburg, Md.) and 10% calf serum (available from Sigma, St. Louis, […].). The cells were treated with trypsin-EDTA, spun down and plated at 2×10^6 per 15 cm dish in 20 m1 of DMEM containing 10% calf serum.
The m1-m5 muscarinic receptor subtypes were cloned substantially as described by Bonner et al., Science 237, 1987, p. 527, and Bonner et al., Neuron 1, 1988, p. 403. For the m2 and m4 receptors, the cells were co-transfected with DNA encoding a chimera between the Gq protein and the five carboxy-terminal amino acids of the Gi protein (the Gq-i5 construct is described by Conklin et al., Nature 363, 1993, p.274).
On day one, the cells were transfected using the Superfect transfection reagent (available from Qiagen, Valencia, Calif.) in accordance with the manufacturer's instructions. Receptor DNA, β-gal DNA (pSI-β-galactosidase available from Promega, Madison, Wis.), chimeric Gq-i5 DNA for the m2 and m4 receptor subtype assays, and salmon sperm DNA (available from Sigma, St. Louis, […].) as filler to a total of 20 μg DNA was added per plate. Prior to addition to the plates, 60 μl Superfect was added to the DNA and mixed thoroughly by pipetting up and down several times. The mixture was incubated at room temperature for 10-15 minutes. The media were aspirated, and 12 ml fresh DMEM containing 10% calf serum and 50 units/m1 penicillin/streptomycin was added to the plates. The DNA-Superfect solution was mixed once more with a pipette and added to the plate which was swirled to distribute the DNA mixture evenly over the surface. The cells were incubated overnight at 37° C. and 5% CO2. After incubation, the media were aspirated and the plates were rinsed once with a 15 m1 volume of Hank's Buffered Saline. The plates were swirled to ensure thorough rinsing. 20 m1 fresh DMEM supplemented with 10% calf serum and 50 units/m1 penicillin/streptomycin was added to the plates. The cells were incubated for 24-48 hours until the plates were 100% confluent.
Assay of NIH 3T3 cells transfected with muscarinic receptor subtypes (general procedure) DMEM containing 2% Cyto-SF3 was heated at 37° C. in a water bath under sterile conditions. Sterile working stock solutions of test compounds to be assayed were prepared by diluting the compounds in DMEM to 8× the final concentration for testing. The compound (carbachol) to be included in the assay as a positive control was also diluted in DMEM to 8× the final concentration. 50 μL of the DMEM containing 2% Cyto-SF3 was added to each well of 96-well microtiter plates under sterile conditions. Then, 16 of compound solutions were added to the top wells of the plates, and dilution of the solutions was performed by taking 16 μl of the compound solutions from the top wells and pipetting them into the next row of wells. This procedure was repeated with each subsequent row of wells, except that 50 μl medium alone was added to the baseline control wells (the wells that contain medium and cells, but not test compounds) and plate control wells (wells containing medium, but not test compounds and cells). […]

T3 sequence (P20309 whole entry): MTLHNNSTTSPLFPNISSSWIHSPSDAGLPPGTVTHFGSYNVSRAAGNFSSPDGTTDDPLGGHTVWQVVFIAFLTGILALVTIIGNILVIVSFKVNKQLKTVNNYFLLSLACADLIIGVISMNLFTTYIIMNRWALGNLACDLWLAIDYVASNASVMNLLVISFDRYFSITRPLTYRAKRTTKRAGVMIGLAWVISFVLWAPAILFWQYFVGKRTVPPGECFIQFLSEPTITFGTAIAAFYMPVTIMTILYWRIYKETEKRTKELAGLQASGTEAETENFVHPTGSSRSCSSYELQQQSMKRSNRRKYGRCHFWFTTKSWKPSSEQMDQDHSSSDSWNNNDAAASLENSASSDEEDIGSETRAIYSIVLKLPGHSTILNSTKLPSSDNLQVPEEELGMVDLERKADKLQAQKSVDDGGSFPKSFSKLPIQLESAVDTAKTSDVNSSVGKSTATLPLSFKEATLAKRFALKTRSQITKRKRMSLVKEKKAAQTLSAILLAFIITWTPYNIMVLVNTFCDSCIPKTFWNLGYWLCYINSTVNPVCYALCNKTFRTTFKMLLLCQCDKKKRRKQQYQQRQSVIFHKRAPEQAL
Sequence of serotonin 5-HT2A (P28223 whole entry): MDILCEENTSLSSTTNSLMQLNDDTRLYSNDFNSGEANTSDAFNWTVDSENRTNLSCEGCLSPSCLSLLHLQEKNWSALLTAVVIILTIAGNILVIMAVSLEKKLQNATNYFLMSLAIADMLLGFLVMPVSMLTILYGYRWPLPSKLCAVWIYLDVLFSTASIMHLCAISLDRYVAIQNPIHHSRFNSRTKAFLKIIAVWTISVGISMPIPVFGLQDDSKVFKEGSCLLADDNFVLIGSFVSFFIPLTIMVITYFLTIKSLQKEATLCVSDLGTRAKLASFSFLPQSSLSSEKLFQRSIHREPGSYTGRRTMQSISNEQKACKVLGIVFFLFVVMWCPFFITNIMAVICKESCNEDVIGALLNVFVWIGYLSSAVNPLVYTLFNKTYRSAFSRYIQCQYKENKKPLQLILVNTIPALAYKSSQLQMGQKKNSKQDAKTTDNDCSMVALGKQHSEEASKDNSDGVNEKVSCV

Q: For `CCCCC1CCN(CCCC(=O)c2ccccc2C)CC1` [Compound A, 4-n-Butyl-1-[4-(2-methylphenyl)-4-oxo-1-butyl]piperidine], which agonist activity [1] is on record?
A: no significant activity

Q: And the agonist activity [2]?
A: no significant activity

Q: What about the “inhibition of receptor responses (antagonist experiments)” value [2] of the same molecule?
A: did not inhibit

Q: What about the agonist activity (serotonin 5-HT2A) of the same molecule?
A: no significant activity

Q: What about the “inhibition of receptor responses (antagonist experiments)” value (serotonin 5-HT2A) of the same molecule?
A: did not inhibit

Q: And the “agonist activity at the m3 receptor” value (m3 receptor)?
A: only activated the m1 receptor subtype

Q: And the Emax at 1.5 µM (m3 receptor; NIH3T3, m3, compound at 1.5 μM, maximum = response to 10 μM carbachol, read-out: Cellular response as a percentage of the maximum response of the cells)?
A: 7%

Q: What about the “antagonism of carbachol-induced responses” value (m3 receptor; m3) of the same molecule?
A: not an antagonist
